Assay results: patent EP4480314A1, “BENEFICIAL SALTS FOR ENHANCING BIOCONTROL EFFICACY OF FUNGAL SPORES” (priority 2023, dated 2024)
In brackets after ≈: the same amount, converted by molar mass.

Assays:
[1] = cited from earlier work
[2] = test system: white flies; settings: spores of C. fumosorosea supplemented with low concentrations of the acid in the spray liquid; PCT/EP2022/086495; cited from earlier work
[3] = cited from earlier work; remark: listed apart in the source
[4] = test system: Bemisia tabaci; experiment: Insecticidal activity against white flies on single-leaf cotton plants, spray application (Example 1, spores of C. javanica strain Apopka 97); type: in vivo; parameters: expected control (Colby) less than the observed level of control: concentration or dose not given beside the values; settings: for expected control (Colby) less than the observed level of control: in composition with 1,0E+07 spores/ml C. javanica Apopka 97; for Abbott efficacy: spores 1,0E+07 s/ml, cotton, twelve days after treatment, control pure water; for White fly mortality: composition of spores and salt compared with spores alone or the salt alone
[5] = test system: Bemisia tabaci; experiment: Insecticidal activity against white flies on bean plants (Phaseolus vulgaris), microsprayer application (Example 2, spores of C. javanica strain GF 511); type: in vivo
Protocol: For testing insecticidal activity against white flies, 9-day-old plants (Phaseolus vulgaris cv. Pérola) with two primary leaves grown with Oxisol (2 L) with fertilizer NPK 5-30-15 were kept in a screenhouse covered with a fine screen fabric (50 mesh). Adult-infested plants with Bemisia tabaci were shaken and placed next to pest-free bean plants (9 days old with two primary leaves) for 6 to 8h to allow oviposition. This exposure provided more than 200 eggs per leaf. Afterwards the plants were transferred to a clean and insect-free room and incubated at 25°C until hatching and development of immobile N2 nymphal stages (10 to 12 days after infestation). Per treatment, seven pots with four bean plants in the two-leave stage were used as biological replicates. The experiment was conducted in a randomized block design in five screenhouse benches, one for each repetition, with the treatments randomized within the block.
Before spraying, whitefly nymphs were checked for good coverage on the leaves and the infected plants were sprayed with the prepared solutions as detailed above. […] The amount is adjusted in function of the size of the primary leaves in order to ensure a good coverage. Afterwards, the plants are incubated under controlled conditions (30 °C and 40 % RH). Fourteen days after treatment, one plant/pot (two leaves per treatment) were destructively evaluated for insect mortality. Nymphal mortality was assessed under a dissecting stereomicroscope (Leica) at x40 magnification. For confirming the fungal infection, a small red dot was marked on the leaf next to the dead nymphs. The leaves were then incubated inside Gerbox box with a wet cotton added to the leaf petiole for four days at room temperature. The dead marked nymphs presenting sporulation (i.e., mycosed nymphs) were considered infected by the fungus.

[6] = Table 1, citric acid 0,1%, glutamic acid monosodic salt 0,08%
[7] = Table 2, citric acid 0,05%, ammonium citrate di-basic 0,06%, potassium citrate 0,08%

CC[C@H](C)[C@H](N)C(=O)O [Isoleucine]
pka(1) [1]: 2,32

O=C(O)c1ccnc(C(=O)O)c1 [Lutidinic acid]
pka(1) [1]: 2,17

O=C(O)c1cccc(C(=O)O)n1 [Dipicolinic acid]
efficacy of this entomopathogenic fungus against white flies [2]: increase the efficacy

N[C@@H](Cc1c[nH]c2ccccc12)C(=O)O [Tryptophan]
water solubility (g/l) at room temperature [3]: 11,4 g/l
pka(1) [1]: 2,46

N[C@@H](CCC(=O)O)C(=O)[O-].[Na+] [glutamic acid monosodic salt, glutamic acid monosodium salt]
expected control (Colby) less than the observed level of control ([4]; Table 1): 26,44%
Abbott efficacy [4, 6]: -0,34
White fly mortality [4]: significantly and synergistically higher
Abbott efficacy [5]: 7,57
expected control (Colby) less than the observed level of control [5]: 11,03%

N[C@@H](C[SeH])C(=O)O [Selenocysteine]
water solubility (g/l) at room temperature [3]: 400 g/L (≈ 2380 mM)

O=C(O)CCC(=O)C(=O)O [alpha-ketoglutaric acid]
water solubility (g/l) at room temperature [3]: 100 g/L (≈ 684 mM)

N.N.O=C(O)CC(O)(CC(=O)O)C(=O)O [ammonium citrate di-basic]
expected control (Colby) less than the observed level of control ([4]; Table 2): 27,89%
Abbott efficacy [4, 7]: 6,34
White fly mortality [4]: significantly and synergistically higher

N[C@@H](Cc1ccccc1)C(=O)O [Phenylalanine]
water solubility (g/l) at room temperature [3]: >10 g/L

O=C(O)CC(O)C(=O)O (stereo not shown) [Malic acid]
water solubility (g/l) at room temperature [3]: 558 g/L (≈ 4160 mM)

O=C(O)c1cccnc1C(=O)O [Chinolinic acid]
water solubility (g/l) at room temperature [3]: 10 g/L (≈ 59.8 mM)

O=C(O)C=C(CC(=O)O)C(=O)O [Aconitic acid]
water solubility (g/l) at room temperature [3]: 400 g/L (≈ 2300 mM)
pka(1) [1]: 2,8

O=C(O)c1ccc(C(=O)O)nc1 [Isocinchomeronic acid]
pka(1) [1]: 2,31

O=C(O)CC(O)(CC(=O)O)C(=O)O [citric acid, Citric acid, reference compound]
expected control (Colby) less than the observed level of control ([4]; Table 1): 11,63%
Abbott efficacy [4, 6]: 9,86
expected control (Colby) less than the observed level of control ([4]; Table 2): 24,27%
Abbott efficacy [4, 7]: 7,88
Abbott efficacy ([5]; Table 3, spores 1,0E+07 s/ml, citric acid 0,05%, glutamic acid monosodium salt 0,08%, all with 0,05% Tween, bean plants, fourteen days after treatment, control Tween 80 (0.05% v/v)): 3.56
efficacy of this entomopathogenic fungus against white flies [2]: increase the efficacy

O=C(O)c1ccccn1 [Picolinic acid]
water solubility (g/l) at room temperature [3]: 887 g/L (≈ 7200 mM)
pka(1) [1]: 5,39

O=C(O)CC(C(=O)O)C(O)C(=O)O (stereo not shown) [Isocitric acid]
water solubility (g/l) at room temperature [3]: 53 g/L (≈ 276 mM)

O=C([O-])CC(O)(CC(=O)[O-])C(=O)[O-].[K+].[K+].[K+] [potassium citrate]
expected control (Colby) less than the observed level of control ([4]; Table 2): 11,7%
Abbott efficacy [4, 7]: 1,74
White fly mortality [4]: significantly and synergistically higher

CC(C)[C@H](N)C(=O)O [Valine]
pka(1) [1]: 2,39
